molecular target: HEK293 cells with stable expression of the GRIN1 gene and tetracycline-inducible expression of the GRIN2B gene (NMDA receptor, NR2B) (Homo sapiens, UniProt Q13224); assay: Fluo-8 Ca2+ flux assay: reversal of Ro 25-6981-mediated suppression of the Ca2+ response to co-agonist (glutamate/glycine); format: cell-based; conditions: reversal of the Ro 25-6981 suppression of the Ca2+ response to co-agonist (glutamate/glycine); note: test concentration or dose not given here
Sequence (Q13224 27-1484, other chains not shown): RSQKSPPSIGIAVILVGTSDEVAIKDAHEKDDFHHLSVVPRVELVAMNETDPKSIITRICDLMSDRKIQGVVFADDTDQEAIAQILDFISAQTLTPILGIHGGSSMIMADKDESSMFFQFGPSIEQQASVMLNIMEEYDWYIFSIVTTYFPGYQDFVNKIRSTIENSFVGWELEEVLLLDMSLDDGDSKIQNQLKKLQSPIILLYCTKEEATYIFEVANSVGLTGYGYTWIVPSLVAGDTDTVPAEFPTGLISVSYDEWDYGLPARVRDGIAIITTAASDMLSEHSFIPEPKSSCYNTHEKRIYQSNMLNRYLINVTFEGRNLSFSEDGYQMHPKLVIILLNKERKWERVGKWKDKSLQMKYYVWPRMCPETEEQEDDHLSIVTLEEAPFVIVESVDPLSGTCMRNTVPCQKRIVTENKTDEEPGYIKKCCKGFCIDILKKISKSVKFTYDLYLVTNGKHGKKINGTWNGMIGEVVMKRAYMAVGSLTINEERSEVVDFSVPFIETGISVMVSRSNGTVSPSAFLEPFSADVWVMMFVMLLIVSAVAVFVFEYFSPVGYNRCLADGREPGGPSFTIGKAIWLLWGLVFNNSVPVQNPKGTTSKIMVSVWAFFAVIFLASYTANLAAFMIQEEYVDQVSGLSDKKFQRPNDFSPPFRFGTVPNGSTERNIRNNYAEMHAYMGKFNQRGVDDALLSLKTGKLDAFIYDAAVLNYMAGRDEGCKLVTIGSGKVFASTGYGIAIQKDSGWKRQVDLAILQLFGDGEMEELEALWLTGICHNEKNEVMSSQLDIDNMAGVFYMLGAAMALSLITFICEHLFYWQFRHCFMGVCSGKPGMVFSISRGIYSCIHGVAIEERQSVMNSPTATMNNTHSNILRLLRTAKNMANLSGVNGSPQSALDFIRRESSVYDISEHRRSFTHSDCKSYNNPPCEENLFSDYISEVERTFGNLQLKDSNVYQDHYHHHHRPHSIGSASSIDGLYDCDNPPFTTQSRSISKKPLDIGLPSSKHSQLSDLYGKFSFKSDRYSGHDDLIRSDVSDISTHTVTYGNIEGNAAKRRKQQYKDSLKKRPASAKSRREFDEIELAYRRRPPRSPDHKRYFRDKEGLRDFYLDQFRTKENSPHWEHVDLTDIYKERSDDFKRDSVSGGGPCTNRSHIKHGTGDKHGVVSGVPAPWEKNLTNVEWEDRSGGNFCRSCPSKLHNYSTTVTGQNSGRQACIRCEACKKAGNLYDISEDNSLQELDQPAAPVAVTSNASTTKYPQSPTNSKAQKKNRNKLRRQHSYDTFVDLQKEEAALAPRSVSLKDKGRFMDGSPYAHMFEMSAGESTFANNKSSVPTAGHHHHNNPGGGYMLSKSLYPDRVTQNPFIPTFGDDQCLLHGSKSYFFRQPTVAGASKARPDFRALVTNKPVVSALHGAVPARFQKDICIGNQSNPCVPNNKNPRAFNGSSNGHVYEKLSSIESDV

| Compound | Response Recovered (%) |
| --- | --- |
| O=C(Cn1cnc2[nH]cc(-c3ccc(Cl)c(C(F)(F)F)c3)c2c1=O)N1CC(F)(F)C1 [Example 166, 5-(4-chloro-3-(trifluoromethyl)phenyl)-3-(2-(3,3-difluoroazetidin-1-yl)-2-oxoethyl)-3H-pyrrolo[2,3-d]pyrimidin-4(7H)-one] | 65 |
| O=C(Cn1ccc2ncc(-c3cnc(Cl)c(C(F)(F)F)c3)n2c1=O)N1CCC(F)C1 (centres unmarked) [Example 449, 3-(6-chloro-5-(trifluoromethyl)pyridin-3-yl)-6-(2-(3-fluoropyrrolidin-1-yl)-2-oxoethyl)imidazo[1,2-c]pyrimidin-5(6H)-one] | 5.2 |
| O=C(Cn1cnc2c(c(-c3ccc(Cl)c(C(F)(F)F)c3)cn2CCF)c1=O)N1CCCC1 [Example 149, 5-(4-chloro-3-(trifluoromethyl)phenyl)-7-(2-fluoroethyl)-3-(2-oxo-2-(pyrrolidin-1-yl)ethyl)-3H-pyrrolo[2,3-d]pyrimidin-4(7H)-one] | 64 |
| O=C(Cn1cc(Br)c2scc(-c3ccc(Cl)c(C(F)(F)F)c3)c2c1=O)N1CCCC1 [Example 98, 7-bromo-3-(4-chloro-3-(trifluoromethyl)phenyl)-5-(2-oxo-2-(pyrrolidin-1-yl)ethyl)thieno[3,2-c]pyridin-4(5H)-one] | 40 |
| O=C(Cn1cnc2[nH]nc(-c3ccc(Cl)c(C(F)(F)F)c3)c2c1=O)N1CCCC1 [Example 317, 3-(4-chloro-3-(trifluoromethyl)phenyl)-5-(2-oxo-2-(pyrrolidin-1-yl)ethyl)-1H-pyrazolo[3,4-d]pyrimidin-4(5H)-one] | 8 |
| O=C(Cn1cnc2cccc(-c3ccc(Cl)cc3)c2c1=O)N1CCCC1 [Example 295, 5-(4-chlorophenyl)-3-(2-oxo-2-(pyrrolidin-1-yl)ethyl)quinazolin-4(3H)-one] | 1 |
| CC1(O)CN(C(=O)Cn2ccc3scc(-c4ccc(F)c(C(F)(F)F)c4)c3c2=O)C1 [Example 55, 3-(4-fluoro-3-(trifluoromethyl)phen-yl)-5-(2-(3-hydroxy-3-methylazetidin-1-yl)-2-oxoethyl)thieno[3,2-c]pyridin-4(5H)-one] | 14 |
| O=C(Cn1ccc2scc(-c3ccc(Cl)c(Cl)c3)c2c1=O)N1CC(F)(C2CC2)C1 [Example 49, 5-(2-(3-cyclopropyl-3-fluoroazetidin-1-yl)-2-oxoethyl)-3-(3,4-dichlorophenyl)thien-o[3,2-c]pyridin-4(5H)-one] | 26 |
| CCC1(F)CN(C(=O)Cn2ccc3scc(-c4cnc(F)c(C)c4)c3c2=O)C1 [Example 88, 5-(2-(3-ethyl-3-fluoroazetidin-1-yl)-2-oxoethyl)-3-(6-fluoro-5-methylpyridin-3-yl)thieno[3,2-c]pyridin-4(5H)-one] | 20 |
| CN(CC(F)(F)F)C(=O)Cn1ccc2scc(-c3ccc(F)c(Cl)c3)c2c1=O [Example 93, 2-(3-(3-chloro-4-fluorophenyl)-4-oxothieno[3,2-c]pyridin-5(4H)-yl)-N-methyl-N-(2,2,2-trifluoroethyl)acetamide] | 4.1 |
| Cn1cnc(-n2cc(-c3ccc(Cl)c(Cl)c3)c3c(=O)n(CC(=O)N4CC(C)(F)C4)ccc32)n1 [Example 270, 3-(3,4-dichlorophenyl)-5-(2-(3-fluoro-3-methylazetidin-1-yl)-2-oxoethyl)-1-(1-methyl-1H-1,2,4-triazol-3-yl)-1H-pyrrolo[3,2-c]pyridin-4(5H)-one] | 130 |
| O=C(Cn1cnc2c(c(-c3ccc(F)c(C(F)(F)F)c3)cn2CCO)c1=O)N1CCC(F)C1 (centres unmarked) [Example 196, 5-(4-fluoro-3-(trifluoromethyl)phenyl)-3-(2-(3-fluoropyrrolidin-1-yl)-2-oxoethyl)-7-(2-hydroxyethyl)-3H-pyrrolo[2,3-d]pyrimidin-4(7H)-one] | 34 |
| CCC1(F)CN(C(=O)Cn2ccc3scc(-c4cnc(C#N)c(Cl)c4)c3c2=O)C1 [Example 137, 3-chloro-5-(5-(2-(3-ethyl-3-fluoroazetidin-1-yl)-2-oxoethyl)-4-oxo-4,5-dihydrothieno[3,2-c]pyridin-3-yl)picolinonitrile] | 22 |
| Cn1cc(-c2ccc(Cl)cc2)c2c(=O)n(CC(=O)N3CCCC3)cnc21 [Example 151, 5-(4-chlorophenyl)-7-methyl-3-(2-oxo-2-(pyrrolidin-1-yl)ethyl)-3H-pyrrolo[2,3-d]pyrimidin-4(7H)-one] | 17 |
| C[Si](C)(C)CCOCn1cc(-c2ccc(F)c(Cl)c2)c2c(=O)n(CC(=O)N3CCCC3)ccc21 [Example 205, 3-(3-chloro-4-fluorophenyl)-5-(2-oxo-2-(pyrrolidin-1-yl)ethyl)-1-((2-(trimethylsilyl)ethoxy)methyl)-1H-pyrrolo[3,2-c]pyridin-4(5H)-one] | 59 |
| CCC1(F)CN(C(=O)Cn2ccn3c(C)nc(-c4ccc(F)c(Cl)c4)c3c2=O)C1 [Example 431, 1-(3-chloro-4-fluorophenyl)-7-(2-(3-ethyl-3-fluoroazetidin-1-yl)-2-oxoethyl)-3-methylimidazo[1,5-a]pyrazin-8(7H)-one] | −3.9 |
| CC1(F)CN(C(=O)Cn2ccc3c(c(-c4cnc(F)c(Cl)c4)cn3C3CC3)c2=O)C1 [Example 291, 3-(5-chloro-6-fluoropyridin-3-yl)-1-cyclopropyl-5-(2-(3-fluoro-3-methylazetidin-1-yl)-2-oxoethyl)-1H-pyrrolo[3,2-c]pyridin-4(5H)-one] | 80 |

Results, then the compound that gave them:

| Response Recovered (%) | Compound |
| --- | --- |
| 103 | O=C(Cn1ccc2scc(-c3ccc(F)c(C(F)(F)F)c3)c2c1=O)N1CC[C@H](F)C1 [Example 26, (S)-3-(4-fluoro-3-(trifluoromethyl)phen-yl)-5-(2-(3-fluoropyrrolidin-1-yl)-2-oxoethyl)thieno[3,2-c]pyridin-4(5H)-one] |
| 70 | COCn1cc(-c2ccc(Cl)c(Cl)c2)c2c(=O)n(CC(=O)N3CCC(F)C3)ccc21 (centres unmarked) [Example 249, 3-(3,4-dichlorophenyl)-5-(2-(3-fluoropyrrolidin-1-yl)-2-oxoethyl)-1-(methoxymethyl)-1H-pyrrolo[3,2-c]pyridin-4(5H)-one] |
| 40 | O=C(Cn1ccc2cccc(-c3ccc(F)c(Cl)c3)c2c1=O)N1CCC(F)C1 (centres unmarked) [Example 302, 8-(3-chloro-4-fluorophenyl)-2-(2-(3-fluoropyrrolidin-1-yl)-2-oxoethyl)isoquinolin-1(2H)-one] |
| 34 | COCn1cc(-c2ccc(F)c(Cl)c2)c2c(=O)n(CC(=O)N3CCC(F)C3)ccc21 (centres unmarked) [Example 246, 3-(3-chloro-4-fluorophenyl)-5-(2-(3-fluoropyrrolidin-1-yl)-2-oxoethyl)-1-(methoxymethyl)-1H-pyrrolo[3,2-c]pyridin-4(5H)-one] |
| 41 | O=C(Cn1ccc2cccc(-c3ccc(F)c(Cl)c3)c2c1=O)N1CC(F)(F)C1 [Example 309, 8-(3-chloro-4-fluorophenyl)-2-(2-(3,3-difluoroazetidin-1-yl)-2-oxoethyl)isoquinolin-1(2H)-one] |
| 72 | O=C(Cn1cc(CO)c2scc(-c3ccc(Cl)c(Cl)c3)c2c1=O)N1CCC(F)C1 (centres unmarked) [Example 131, 3-(3,4-dichlorophenyl)-5-(2-(3-fluoropyrrolidin-1-yl)-2-oxoethyl)-7-(hydroxymethyl) thieno[3,2-c]pyridin-4(5H)-one] |
| 54 | O=C(Cn1cnc2[nH]cc(-c3ccc(F)c(Cl)c3)c2c1=O)N1CCC(F)C1 (centres unmarked) [Example 178, 5-(3-chloro-4-fluorophenyl)-3-(2-(3-fluoropyrrolidin-1-yl)-2-oxoethyl)-3H-pyrrolo[2,3-d]pyrimidin-4(7H)-one] |
| 7.3 | Cc1nc(-c2ccc(F)c(Cl)c2)c2c(=O)n(CC(=O)N3CC(F)(F)C3)ccn12 [Example 430, 1-(3-chloro-4-fluorophenyl)-7-(2-(3,3-dilfuoroazetidin-1-yl)-2-oxoethyl)-3-methylimidazo[1,5-a]pyrazin-8(7H)-one] |
| 120 | CC1(F)CN(C(=O)Cn2ccc3c(c(-c4ccc(F)c(Cl)c4)cn3C3COC3)c2=O)C1 [Example 282, 3-(3-chloro-4-fluorophenyl)-5-(2-(3-fluoro-3-methylazetidin-1-yl)-2-oxoethyl)-1-(oxetan-3-yl)-1,5-dihydro-4H-pyrrolo[3,2-c]pyridin-4-one] |
| 140 | O=C(Cn1ccc2scc(-c3ccc(F)c(Cl)c3)c2c1=O)N1CC(F)(CF)C1 [Example 81, 3-(3-chloro-4-fluorophenyl)-5-(2-(3-fluoro-3-(fluoromethyl)azetidin-1-yl)-2-oxoethyl)thieno[3,2-c]pyridin-4(5H)-one] |
| 23 | O=C(Cn1ccc2ncc(-c3ccc(F)c(Cl)c3)n2c1=O)N1CCC(F)C1 (centres unmarked) [Example 451, 3-(3-chloro-4-fluorophenyl)-6-(2-(3-fluoropyrrolidin-1-yl)-2-oxoethyl)imidazo[1,2-c]pyrimidin-5(6H)-one] |
| 9 | O=C(Cn1cnc2cccc(-c3ccc(Cl)cc3)c2c1=O)N1CCCC1F (centres unmarked) [Example 298, 5-(4-chlorophenyl)-3-(2-(2-fluoropyrrolidin-1-yl)-2-oxoethyl)quinazolin-4(3H)-one] |
| 35 | CC(C)(O)Cn1cc(-c2ccc(F)c(Cl)c2)c2c(=O)n(CC(=O)N3CCC(F)C3)ccc21 (centres unmarked) [Example 259, 3-(3-chloro-4-fluorophenyl)-5-(2-(3-fluoropyrrolidin-1-yl)-2-oxoethyl)-1-(2-hydroxy-2-methylpropyl)-1H-pyrrolo[3,2-c]pyridin-4(5H)-one] |
| 112 | Cc1cn(CC(=O)N2CCC(F)C2)c(=O)c2c(-c3ccc(F)c(Cl)c3)ccn12 (centres unmarked) [Example 414, 8-(3-chloro-4-fluorophenyl)-2-(2-(3-fluoropyrrolidin-1-yl)-2-oxoethyl)-4-methylpyrrolo[1,2-a]pyrazin-1(2H)-one] |
| 23 | O=C(Cn1ccc2cccc(-c3ccc(Cl)c(F)c3)c2c1=O)N1CC(F)(F)C1 [Example 305, 8-(4-chloro-3-fluorophenyl)-2-(2-(3,3-difluoroazetidin-1-yl)-2-oxoethyl)isoquinolin-1(2H)-one] |
